This passage reports GI50 and TGI results from PubChem BioAssay (NCI).

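Dose response: 5 concentrations. Exposure: 48 h. Format: 96-well plates. Endpoint: linear interpolation; highest concentration if not reached. GI50 = concentration required for 50% inhibition of growth. At the TGI there is no net growth.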 Where only a bound is given, the exact number is not on record here.

What all share (assay): inhibition of tumour cell growth, NCI panel, 48 h
Assay [1] concerns MDA-MB-435.
In assay [2] the test system is NCI-H226 lung.
The test system of assay [3] is NCI-H460 lung.
Assay [4] deals with IGROV1 ovarian.
Assay [5] concerns SW-620 colon.
Assay [6] relates to SK-MEL-28 melanoma.
The subject of assay [7] is HCT-116 colon.
Assay [8] has as its system SF-295 CNS.

With `O=C(Cc1ccc(Nc2ccnc(C(F)(F)F)c2)cc1)Nc1cc(Cl)ccc1O`, the GI50 in assay [1] was 4.33 µM; in assay [2] it was 10.3 µM; in assay [3], 6.92 µM; in assay [4] it was 6.34 µM; in assay [5], 6.23 µM; in assay [6] it was 6.06 µM. Moreover, the GI50 was 5.12 µM in assay [7] and 3.06 µM in assay [8]. The TGI in assay [1] stood at 17.5 µM; in assay [2], 32.3 µM; in assay [3] it was 27.9 µM; in assay [4] it was 30 µM; in assay [5], 21.4 µM; in assay [6], 18.7 µM. For the same compound, the values for the TGI in assay [7] and in assay [8] were 26.5 µM and 11.9 µM, respectively.
As for `NC(=O)c1sc(-n2cnc3ccc(C(F)(F)F)cc32)cc1OCc1ccccc1Br`, the GI50 in assay [1] was 0.636 µM; in assay [2], 1.94 µM; in assay [3], 0.946 µM; in assay [4] it was 2.22 µM; in assay [5] it was 0.749 µM; in assay [6], 4.82 µM. Besides, the GI50 in assay [7] is 1.43 µM; in assay [8], 1.72 µM. Besides, the TGI in assay [1] was 1.78 µM; in assay [2], 18.6 µM; in assay [3] it was over 15.4 µM; in assay [4], over 25 µM; in assay [5] it was over 25 µM; in assay [6], over 25 µM. The values for the TGI in assay [7] and in assay [8] were over 25 µM and over 23.4 µM, respectively.
With `COc1cc(OC)c(F)c(COc2cnc(Nc3cnn(CCO)c3)nc2)c1F`, the GI50 is 0.2 µM in assay [1]; 0.343 µM in assay [2]; 0.444 µM in assay [3]; 0.595 µM in assay [4]; 0.412 µM in assay [5]; 1.85 µM in assay [6]. Also, the GI50 in assay [7] is 0.386 µM; in assay [8], 0.649 µM. For the same compound, the TGI in assay [1] was 0.59 µM; in assay [2], over 23.9 µM; in assay [3], over 100 µM; in assay [4], over 100 µM; in assay [5], over 100 µM; in assay [6], over 100 µM. The figures for the TGI in assay [7] and in assay [8] were over 100 µM and over 29.8 µM, respectively.
For `Nc1nccc2c1ccn2-c1cccc(NC(=O)c2ccc(N3CCOCC3)c(C(F)(F)F)c2)c1`, the GI50 in assay [1] was 0.163 µM; in assay [2], 1.74 µM; in assay [3], 0.297 µM; in assay [4] it was 0.869 µM; in assay [5] it was 0.49 µM; in assay [6], 1.06 µM. Besides, the figures for the GI50 in assay [7] and in assay [8] were 0.677 µM and 0.371 µM, respectively. Further, the TGI in assay [1] is over 50 µM; in assay [2] it was 18.1 µM; in assay [3], 5.42 µM; in assay [4], over 46.5 µM; in assay [5] it was over 50 µM; in assay [6], over 47.5 µM. Moreover, the TGI in assay [7] was determined as 8.66 µM; in assay [8], 1.85 µM.
As to `Nc1nc(-c2ccc(Cl)cc2)cc(-c2ccc(Cl)cc2)c1-c1nc2ccccc2o1`, the GI50 is 18.3 µM in assay [1]; 19.1 µM in assay [2]; 16.8 µM in assay [3]; 16.1 µM in assay [4]; 17.5 µM in assay [5]; 17.4 µM in assay [6]. The GI50 in assay [7] was 14.8 µM; in assay [8] it was 21.7 µM. The TGI turned out to be 36.1 µM in assay [1]; 34.9 µM in assay [2]; 39.6 µM in assay [3]; 34.3 µM in assay [4]; 33.3 µM in assay [5]; 34.3 µM in assay [6]. Further, the TGI worked out at 30.5 µM in assay [7] and 40.3 µM in assay [8].
For the compound `COc1ccc(-c2nnc(SCC(=O)Nc3ccc(C(=O)/C=C/c4cc(OC)c(OC)c(OC)c4)cc3)n2-c2ccccc2)cc1OC`, the GI50 in assay [1] is 1.77 µM; in assay [2], 2.29 µM; in assay [3] it was 8.54 µM; in assay [4] it was 7.72 µM; in assay [5], 2.45 µM; in assay [6], over 10 µM. In addition, the GI50 in assay [7] was 0.433 µM; in assay [8] it was over 10 µM. For the same compound, the TGI is 9.91 µM in assay [1]; 8.06 µM in assay [2]; over 10 µM in assay [3]; over 10 µM in assay [4]; over 10 µM in assay [5]; over 10 µM in assay [6]. The TGI in assay [7] and in assay [8] was over 10 µM throughout.
